Results published in patent publication US20240208992A1, “MACROCYCLES AS CFTR MODULATORS” (Idorsia Pharmaceuticals Ltd, priority 2021, published 2024).

Target: human F508del-CFTR (Homo sapiens, UniProt P13569, DEL508-508)
Assay: F508del-CFTR cell surface expression (corrector activity), DiscoveRx ß-galactosidase complementation chemiluminescence assay in recombinant U2OS cell line;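 note: U2OS cells co-expressing ProLink-tagged F508del-CFTR and a membrane-anchored enzyme acceptor, where more surface CFTR restores β-galactosidase activity measured by chemiluminescence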
Details: U2OS cell line, 16h compound incubation; for EC50: EC50, F508del-CFTR cell surface expression, geomean values; for Emax: U2OS, in relation to the Emax of the corrector lumacaftor (=100%), arithmetic mean values
Procedure: The method measures the effect of over-night compound incubation on F508del-CFTR cell surface expression in a recombinant U2OS cell line (DiscoveRx, #93-0987C3). This cell line is engineered to co-express (i) human F508del-CFTR tagged with a Prolink (PK=short ß-galactosidase fragment) and (ii) the remainder of the ß-galactosidase enzyme (Enzyme Acceptor; EA) localized to the plasma membrane. Incubation with compounds that increase PK-tagged F508del-CFTR at the plasma membrane will lead to complementation of the EA fragment to form a functional ß-galactosidase enzyme which is quantified by a chemiluminescence reaction.
The cells are incubated for 5h in the incubator before the addition of 5 μl/well of compound dilution series (5× working stocks in full medium). […] The cells are co-incubated with the compounds for 16h in the incubator at 37° C., 5% CO2. The next day, the cell plates are incubated for 2h at RT in the dark. […] Concentration-response curves are generated using compound-intrinsic maximal efficacy as upper plateau, and from these CRCs compound-intrinsic EC50 values are determined.
The calculated EC50 values may fluctuate depending on the daily assay performance. […] EC50 values from several measurements are given as geomean values. The calculated Emax values may fluctuate depending on the daily assay performance. […] Emax values from several measurements are given as arithmetic mean values.

Chain of human F508del-CFTR (P13569 with tags, fused parts or gaps DEL508-508): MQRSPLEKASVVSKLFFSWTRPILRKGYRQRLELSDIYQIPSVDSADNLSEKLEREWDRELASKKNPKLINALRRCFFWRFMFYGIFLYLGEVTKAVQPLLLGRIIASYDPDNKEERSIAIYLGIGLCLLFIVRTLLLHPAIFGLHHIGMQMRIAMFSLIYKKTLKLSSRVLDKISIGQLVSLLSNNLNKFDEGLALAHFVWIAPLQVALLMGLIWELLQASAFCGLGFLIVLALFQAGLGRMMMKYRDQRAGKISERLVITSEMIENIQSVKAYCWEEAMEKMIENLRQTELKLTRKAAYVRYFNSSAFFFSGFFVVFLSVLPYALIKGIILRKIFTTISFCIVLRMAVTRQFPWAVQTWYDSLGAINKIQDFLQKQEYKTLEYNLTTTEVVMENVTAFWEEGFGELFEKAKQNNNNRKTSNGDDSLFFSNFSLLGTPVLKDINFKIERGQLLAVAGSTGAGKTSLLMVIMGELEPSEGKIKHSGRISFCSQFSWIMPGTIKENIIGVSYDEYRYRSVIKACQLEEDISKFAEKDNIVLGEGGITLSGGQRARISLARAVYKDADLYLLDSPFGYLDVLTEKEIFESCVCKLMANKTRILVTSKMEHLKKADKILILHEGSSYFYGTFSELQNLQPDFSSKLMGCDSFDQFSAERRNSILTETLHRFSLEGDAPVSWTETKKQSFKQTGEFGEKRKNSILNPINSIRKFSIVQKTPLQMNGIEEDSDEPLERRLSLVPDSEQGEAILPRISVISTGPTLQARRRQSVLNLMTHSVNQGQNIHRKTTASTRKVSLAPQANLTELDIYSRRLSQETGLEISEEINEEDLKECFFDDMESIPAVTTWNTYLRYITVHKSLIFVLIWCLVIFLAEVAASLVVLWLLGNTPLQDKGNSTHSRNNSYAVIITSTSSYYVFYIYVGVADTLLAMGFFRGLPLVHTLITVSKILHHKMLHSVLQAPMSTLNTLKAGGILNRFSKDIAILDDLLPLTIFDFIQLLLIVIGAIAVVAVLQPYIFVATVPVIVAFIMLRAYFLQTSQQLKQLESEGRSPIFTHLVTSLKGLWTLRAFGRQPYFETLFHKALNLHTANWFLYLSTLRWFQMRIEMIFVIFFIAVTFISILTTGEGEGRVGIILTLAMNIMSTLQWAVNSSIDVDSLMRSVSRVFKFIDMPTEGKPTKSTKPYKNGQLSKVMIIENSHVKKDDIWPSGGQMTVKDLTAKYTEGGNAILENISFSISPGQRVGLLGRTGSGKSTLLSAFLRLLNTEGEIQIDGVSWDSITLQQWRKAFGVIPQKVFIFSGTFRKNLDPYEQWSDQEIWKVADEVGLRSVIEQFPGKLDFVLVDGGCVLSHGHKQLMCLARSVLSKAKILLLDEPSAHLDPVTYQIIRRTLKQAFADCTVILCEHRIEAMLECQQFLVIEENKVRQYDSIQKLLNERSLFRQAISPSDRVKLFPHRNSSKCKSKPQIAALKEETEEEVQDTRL

Row | SMILES | EC50 [nM] | Emax [%]
1 | CN1CC(=O)N[C@H](Cc2ccccc2)COc2cc3c(cc2C(=O)N[C@H](C(=O)NCCc2ccc4c(c2)OCO4)CC(=O)N(C)[C@@H](CC2CCC2)C1=O)OCO3 [Example 7, (7R,13S,17S)-N-(2-(benzo[d][1,3]dioxol-5-yl)ethyl)-7-benzyl-13-(cyclobutylmethyl)-11,14-dimethyl-9,12,15,19-tetraoxo-6,7,8,9,10,11,12,13,14,15,16,17,18,19-tetradecahydro-[1,3]dioxolo[4′,5′:4,5]benzo[1,2-p][1]oxa[4,7,10,14]tetraazacycloheptadecine-17-carboxamide] | 398 | 118
2 | COc1cc2c(cc1OC)C(=O)N[C@H](C(=O)NCCc1ccc3c(c1)OCCN3C)CC(=O)N(C)[C@@H](CC(C)C)C(=O)N(C)CC(=O)N[C@H](Cc1ccccc1)CO2 [Example 8, (3R,9S,13S)-3-benzyl-9-isobutyl-17,18-dimethoxy-7,10-dimethyl-N-(2-(4-methyl-3,4-dihydro-2H-benzo[b][1,4]oxazin-7-yl)ethyl)-5,8,11,15-tetraoxo-2,3,4,5,6,7,8,9,10,11,12,13,14,15-tetradecahydrobenzo[p][1]oxa[4,7,10,14]tetraazacycloheptadecine-13-carboxamide] | 887 | 210
3 | COc1cccc(CCNC(=O)[C@@H]2CC(=O)N(C)[C@@H](CC(C)C)C(=O)N3CCCC[C@@H]3C(=O)N[C@H](Cc3ccccc3)COc3ccc4ncn(C)c4c3C(=O)N2)c1 [Example 17, (8S,12S,18aR,21R)-21-benzyl-12-isobutyl-N-(3-methoxyphenethyl)-5,11-dimethyl-6,10,13,19-tetraoxo-6,7,8,9,10,11,12,13,16,17,18,18a,19,20,21,22-hexadecahydro-5H,15H-imidazo[4′,5′:5,6]benzo[1,2-p]pyrido[2,1-f][1]oxa[4,7,10,14]tetraazacycloheptadecine-8-carboxamide] | 466 | 180
4 | COc1cccc2c1C(=O)N[C@H](C(=O)NCCc1cnccn1)CC(=O)N(C)[C@@H](CC(C)C)C(=O)N(CCC1CCCCC1)CC(=O)N[C@H](Cc1ccccc1)CO2 [Example 18, (3R,9S,13S)-3-benzyl-7-(2-cyclohexylethyl)-9-isobutyl-16-methoxy-10-methyl-5,8,11,15-tetraoxo-N-(2-(pyrazin-2-yl)ethyl)-2,3,4,5,6,7,8,9,10,11,12,13,14,15-tetradecahydrobenzo[p][1]oxa[4,7,10,14]tetraazacycloheptadecine-13-carboxamide] | 388 | 117
5 | COc1cccc2c1C(=O)N[C@H](C(=O)NCCc1ccncn1)CC(=O)N(C)[C@@H](CC(C)C)C(=O)N(CCC1CCCCC1)CC(=O)N[C@H](Cc1ccccc1)CO2 [Example 19, (3R,9S,13S)-3-benzyl-7-(2-cyclohexylethyl)-9-isobutyl-16-methoxy-10-methyl-5,8,11,15-tetraoxo-N-(2-(pyrimidin-4-yl)ethyl)-2,3,4,5,6,7,8,9,10,11,12,13,14,15-tetradecahydrobenzo[p][1]oxa[4,7,10,14]tetraazacycloheptadecine-13-carboxamide] | 743 | 125
6 | COc1cccc2c1C(=O)N[C@H](C(=O)NCCc1cncnc1)CC(=O)N(C)[C@@H](CC(C)C)C(=O)N(CCC1CCCCC1)CC(=O)N[C@H](Cc1ccccc1)CO2 [Example 20, (3R,9S,13S)-3-benzyl-7-(2-cyclohexylethyl)-9-isobutyl-16-methoxy-10-methyl-5,8,11,15-tetraoxo-N-(2-(pyrimidin-5-yl)ethyl)-2,3,4,5,6,7,8,9,10,11,12,13,14,15-tetradecahydrobenzo[p][1]oxa[4,7,10,14]tetraazacycloheptadecine-13-carboxamide] | 721 | 102
7 | COc1cccc2c1C(=O)N[C@H](C(=O)NCCCOC(F)F)CC(=O)N(C)[C@@H](CC(C)C)C(=O)N(CCC1CCCCC1)CC(=O)N[C@H](Cc1ccccc1)CO2 [Example 21, (3R,9S,13S)-3-benzyl-7-(2-cyclohexylethyl)-N-(3-(difluoromethoxy)propyl)-9-isobutyl-16-methoxy-10-methyl-5,8,11,15-tetraoxo-2,3,4,5,6,7,8,9,10,11,12,13,14,15-tetradecahydrobenzo[p][1]oxa[4,7,10,14]tetraazacycloheptadecine-13-carboxamide] | 350 | 108
8 | COCCOCCNC(=O)[C@@H]1CC(=O)N(C)[C@@H](CC(C)C)C(=O)N(CCC2CCCCC2)CC(=O)N[C@H](Cc2ccccc2)COc2cccc(OC)c2C(=O)N1 [Example 22, (3R,9S,13S)-3-benzyl-7-(2-cyclohexylethyl)-9-isobutyl-16-methoxy-N-(2-(2-methoxyethoxy)ethyl)-10-methyl-5,8,11,15-tetraoxo-2,3,4,5,6,7,8,9,10,11,12,13,14,15-tetradecahydrobenzo[p][1]oxa[4,7,10,14]tetraazacycloheptadecine-13-carboxamide] | 600 | 104
9 | CC(C)C[C@H]1C(=O)N2CCCC[C@@H]2C(=O)N[C@H](Cc2ccccc2)COc2ccc3ncn(C)c3c2C(=O)N[C@H](C(=O)NCCc2nc3c(s2)CCC3)CC(=O)N1C [Example 29, (8S,12S,18aR,21R)-21-benzyl-N-(2-(5,6-dihydro-4H-cyclopenta[d]thiazol-2-yl)ethyl)-12-isobutyl-5,11-dimethyl-6,10,13,19-tetraoxo-6,7,8,9,10,11,12,13,16,17,18,18a,19,20,21,22-hexadecahydro-5H,15H-imidazo[4′,5′:5,6]benzo[1,2-p]pyrido[2,1-f][1]oxa[4,7,10,14]tetraazacycloheptadecine-8-carboxamide] | 439 | 140
10 | CC(C)C[C@H]1C(=O)N2CCCC[C@@H]2C(=O)N[C@H](Cc2ccccc2)COc2ccc3ncn(C)c3c2C(=O)N[C@H](C(=O)NCCc2noc3ccccc23)CC(=O)N1C [Example 30, (8S,12S,18aR,21R)-N-(2-(benzo[d]isoxazol-3-yl)ethyl)-21-benzyl-12-isobutyl-5,11-dimethyl-6,10,13,19-tetraoxo-6,7,8,9,10,11,12,13,16,17,18,18a,19,20,21,22-hexadecahydro-5H,15H-imidazo[4′,5′:5,6]benzo[1,2-p]pyrido[2,1-f][1]oxa[4,7,10,14]tetraazacycloheptadecine-8-carboxamide] | 275 | 113
11 | CC(C)C[C@H]1C(=O)N2CCCC[C@@H]2C(=O)N[C@H](Cc2ccccc2)COc2ccc3ncn(C)c3c2C(=O)N[C@H](C(=O)NCCc2ccc(-n3nccn3)cc2)CC(=O)N1C [Example 31, (8S,12S,18aR,21R)-N-(4-(2H-1,2,3-triazol-2-yl)phenethyl)-21-benzyl-12-isobutyl-5,11-dimethyl-6,10,13,19-tetraoxo-6,7,8,9,10,11,12,13,16,17,18,18a,19,20,21,22-hexadecahydro-5H,15H-imidazo[4′,5′:5,6]benzo[1,2-p]pyrido[2,1-f][1]oxa[4,7,10,14]tetraazacycloheptadecine-8-carboxamide] | 463 | 111
12 | COc1cccc2c1OC[C@@H](NC(=O)[C@@H]1CC(=O)N(C)[C@@H](CC(C)C)C(=O)N3CCOC[C@@H]3C(=O)N[C@H](Cc3ccccc3)COc3ccc4ccccc4c3C(=O)N1)C2 [Example 32, (4aR,7R,18S,22S)-7-benzyl-22-isobutyl-N-(-8-methoxychroman-3-yl)-21-methyl-5,16,20,23-tetraoxo-1,2,4,4a,5,6,7,8,16,17,18,19,20,21,22,23-hexadecahydronaphtho[1,2-p][1,4]oxazino[3,4-f][1]oxa[4,7,10,14]tetraazacycloheptadecine-18-carboxamide] | 318 | 146
